{
  "source": "paper PMC10340331",
  "about": "“Methylthiosulfonate-Based Cysteine Modifiers as Alternative Inhibitors of Mercurial-Sensitive Aquaporins” (Cells, 2023)",
  "type_in_all_cases": "cell-based",
  "key": {"[1]": {"biological_target": "T1, AQP9 (Homo sapiens, UniProt O43315, C213A)", "T1 sequence (O43315 1-295 C213A)": "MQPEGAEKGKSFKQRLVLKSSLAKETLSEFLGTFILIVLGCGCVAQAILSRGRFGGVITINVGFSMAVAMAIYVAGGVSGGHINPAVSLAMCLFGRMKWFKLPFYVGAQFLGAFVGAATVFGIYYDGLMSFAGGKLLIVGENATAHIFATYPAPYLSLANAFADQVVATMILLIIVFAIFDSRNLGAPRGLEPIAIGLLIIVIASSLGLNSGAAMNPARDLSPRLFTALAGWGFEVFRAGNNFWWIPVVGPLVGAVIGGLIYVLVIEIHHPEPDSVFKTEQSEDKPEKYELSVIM", "assay": "stopped-flow light scattering water and glycerol permeability of AQP9 Cys213Ala-expressing yeast at […]"}, "[2]": {"biological_target": "T2, AQP9 (Homo sapiens, UniProt O43315)", "T2 sequence (O43315 1-295)": "T1 sequence (O43315 1-295 C213A) with A213C", "assay": "stopped-flow light scattering water and glycerol permeability of AQP9-expressing yeast at […]"}, "[3]": {"biological_target": "T3, AQP1 (Rattus norvegicus, UniProt P29975)", "T3 sequence (P29975 1-269)": "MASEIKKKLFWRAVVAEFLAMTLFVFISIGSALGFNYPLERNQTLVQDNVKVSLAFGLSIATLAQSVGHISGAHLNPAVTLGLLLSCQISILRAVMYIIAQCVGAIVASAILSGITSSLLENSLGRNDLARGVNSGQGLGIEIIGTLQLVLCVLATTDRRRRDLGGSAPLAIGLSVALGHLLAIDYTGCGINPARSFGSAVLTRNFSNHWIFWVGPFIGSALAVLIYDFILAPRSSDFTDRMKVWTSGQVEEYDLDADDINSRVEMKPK", "assay": "stopped-flow light scattering water permeability of AQP1-expressing yeast; Cys189Ala variant resistant; reversed by ACC/DTT"}, "[4]": {"biological_target": "T3, AQP1", "assay": "stopped-flow light scattering water permeability of AQP1-expressing yeast at […] (marginal effect); Cys189Ala variant resistant"}, "[5]": {"biological_target": "T3, AQP1", "assay": "stopped-flow light scattering water permeability of AQP1-expressing yeast at […]; Cys189Ala variant resistant"}, "[6]": {"biological_target": "T2, AQP9", "assay": "stopped-flow light scattering water and glycerol permeability of AQP9-expressing yeast at […]", "remark": "listed apart in the source"}, "[7]": {"biological_target": "T1, AQP9", "assay": "stopped-flow light scattering water and glycerol permeability of AQP9 Cys213Ala-expressing yeast at […]", "remark": "listed apart in the source"}},
  "note": "Substitutions are numbered along the chain they refer to. Like-named read-outs stand apart in the source and are kept apart here.",
  "data": [
    {"smiles": "CS(=O)(=O)SCc1ccccc1", "note": "[BMTS]", "values": [
      {"measurement": "stopped-flow light scattering water and glycerol permeability of AQP9 Cys213Ala-", "setting": "[1]", "value": "The water permeability of AQP9 Cys213Ala was still inhibited to the same degree as that of the wildtype protein"},
      {"measurement": "stopped-flow light scattering water and glycerol permeability of AQP9-expressing", "setting": "[2]", "value": "AQP9 water and glycerol permeability were strongly inhibited by BMTS and pCMBS"},
      {"measurement": "IC50", "setting": "[3]", "value": "111 ± 3", "unit": "µM"}
    ]},
    {"smiles": "CSS(C)(=O)=O", "note": "[MMTS]", "values": [
      {"measurement": "stopped-flow light scattering water permeability of AQP1-expressing yeast at 1 m", "setting": "[4]", "value": "the transfer of a small S-methyl from MMTS had a marginal effect on the water permeability"}
    ]},
    {"smiles": "CCCSS(C)(=O)=O", "note": "[PMTS]", "values": [
      {"measurement": "stopped-flow light scattering water permeability of AQP1-expressing yeast at 1 m", "setting": "[5]", "value": "modification with S-n-propyl from PMTS conferred intermediate inhibition"}
    ]},
    {"smiles": "O=S(=O)([O-])c1cc[c]([Hg][Cl])cc1", "note": "[pCMBS]", "values": [
      {"measurement": "stopped-flow light scattering water and glycerol permeability of AQP9-expressing", "setting": "[6]", "value": "AQP9 water and glycerol permeability were strongly inhibited by BMTS and pCMBS"},
      {"measurement": "stopped-flow light scattering water and glycerol permeability of AQP9 Cys213Ala-", "setting": "[7]", "value": "treatment of AQP9 Cys213Ala with BMTS or pCMBS failed to generate full resistance to the Cys-modifying agents"}
    ]}
  ]
}
